Data published in patent US6787650B1, “Urea compounds, process for producing the same and use thereof” (Takeda Chemical Industries, Ltd., priority 1999, dated 2004).
Counter-ions that a name gives are not always drawn.

How the values were obtained:
[1] = molecular target: T1, human CCR5 (Homo sapiens, UniProt P51681); assay: Inhibition of [125I]-RANTES binding to CHO/CCR5 cells (CCR5 antagonistic activity); conditions: 1.0 μM test compound, 100 pM [125I]-RANTES, room temperature, 40 minutes; for inhibition at 1 µM: read-out: Inhibition Rate (%) at 1.0 μM
T1 construct: expressed in transfected cells
T1 sequence (P51681 whole entry): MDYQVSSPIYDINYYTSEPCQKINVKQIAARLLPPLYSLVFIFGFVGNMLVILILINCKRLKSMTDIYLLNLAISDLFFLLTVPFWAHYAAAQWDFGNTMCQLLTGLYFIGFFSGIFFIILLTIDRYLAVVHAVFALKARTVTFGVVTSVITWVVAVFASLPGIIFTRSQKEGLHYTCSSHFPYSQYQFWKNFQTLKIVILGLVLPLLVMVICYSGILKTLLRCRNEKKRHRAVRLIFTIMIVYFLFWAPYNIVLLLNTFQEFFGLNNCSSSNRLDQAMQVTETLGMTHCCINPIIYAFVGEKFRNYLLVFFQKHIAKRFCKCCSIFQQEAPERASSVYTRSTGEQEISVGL
Experimental: Cloning of CCR5 gene was carried out by PCR (polymerase chain reaction) from human spleen cDNA. With using 0.5 ng of spleen cDNA (Toyobo, QUICK-Clone cDNA) as a template, PCR was performed in DNA Thermal Cycler 480 (Perkin-Elmer) (reaction conditions: 30 cycles of 95° C. for 1 minute, 60° C. for 1 minute, and 75° C. for 5 minutes) by adding primer set, 5′-[…]-3′ (25 pmol) and 5′-[…]-3′ (25 pmol), which were designed referring to nucleotide sequence of CCR5 gene reported by Samson et al. (Biochemistry, 35 (11), 3362-3367 (1996)) and by using TaKaRa EX Taq (Takara Shuzo). The resultant PCR product was subjected to agarose gel electrophoresis to collect about 1.0 kb DNA fragment, which was subjected to Original TA Cloning Kit (Funakoshi) to carry out cloning of CCR5 gene.
The plasmid obtained in the above (1) was digested with restriction enzymes XbaI (Takara Shuzo) and BamHI (Takara Shuzo) and subjected to agarose gel electrophoresis to collect about 1.0 kb DNA fragment. The DNA fragment was mixed with plasmid pcDNA3.1 (Funakoshi) for expression in animal cells, said plasmid being digested with XbaI and BamHI, and they were ligated with DNA Ligation Kit Ver.2 (Takara Shuzo). The resulting plasmid was subjected to transformation of competent cell of E. coli JM109 (Takara Shuzo) to give plasmid pCKR5.
CHO-K1 cells were grown in 750 ml of tissue culture flask (Becton Dickinson) using Ham's F12 medium (Nihon Pharmaceutical) containing 10% fetal calf serum (Life Tech Oriental) and took off with 0.5 g/L trypsin-0.2 g/L EDTA (Life Tech Oriental). The cells were washed with PBS (Life Tech Oriental), centrifuged (1000 rpm, 5 minutes), and suspended in PBS. With using Gene Pulser (Bio-Rad Laboratories), DNA was introduced into the cells under the conditions shown below. That is, to the cuvette having 0.4 cm gap were added 8×10^6 cells and 10 μg of plasmid pCKR5 for expression of human CCR5, and electroporation was carried out under 0.25 kV of voltage and 960 μF of capacitance. The cells were transferred into Ham's F12 medium containing 10% fetal calf serum, and cultivated for 24 hours. The cells were again took off and centrifuged, and suspended in Ham's F12 medium containing 10% fetal calf serum and 500 μg/ml of geneticin (Life Tech Oriental). The suspension was diluted to give 10^4 cells/ml of the suspension, which was inoculated on 96 well plate (Becton Dickinson) to give geneticin resistant cells.
Then, the resulting geneticin resistant cells were cultivated in 96 well plate (Becton Dickinson), and cells expressing CCR5 were selected from the geneticin resistant cells. That is, in an assay buffer (Ham's F12 medium containing 0.5% BSA and 20 mM HEPES (Wako Pure Chemical, pH 7.2) to which was added 200 pM of [^125I]-RANTES (Amersham) as a ligand, binding reaction was carried out at room temperature for 40 minutes, and the buffer was washed with ice-cooled PBS. To the buffer was added 50 μl/well of 1M NaOH, and the mixture was stirred. Radioactivity was determined with γ-counter to select CHO/CCR5 cells which specifically bound with the ligand.
(4) Evaluation of Test Compounds Based on CCR5 Antagonistic Activity
The CHO/CCR5 were inoculated on 96 well microplate (5×10^4 cells/well) and cultivated for 24 hours. The medium was removed by means of suction, and to each well was added assay buffer containing Test Compound (1 μl) and then 100 pM of [^125I]-RANTES (Amersham) as a ligand. The reaction was carried out at room temperature for 40 minutes, and assay buffer was removed by means of suction. Each well was washed twice with cooled PBS, and 200 μl of Microscinti-20 (Packard Instrument, Inc.) was added to each well. Radioactivity was determined with Top-Count Micro Scintillation Counter (Packard Instrument, Inc.).
According to the method described above, the inhibition rate of the test compounds for CCR5 binding was determined.

[2] = test system: HIV-1 Ba-L; assay: Inhibitory effect on HIV-1 infection to MAGI-CCR5 cell; assay type: cell-based; conditions: Human immunodeficiency virus 1, BAL, 48 h; final concentration 0.16 μM; MAGI-CCR5 cells; 300PFU HIV-1 Ba-L; 37° C., 2 days; blue cells counted
Experimental: (5) Inhibitory Effect on HIV-1 Infection to MAGI-CCR5 Cell
The plasmid where β-galactosidase gene was ligated to the downstream of HIV-1 LTR was introduced into CD4 positive HeLa cell, to which human CCR^5 was further introduced to obtain transformant MAGI-CCR5. By using said transformant MAGI-CCR5, the degree of HIV-1 infection was calculated from β-galactosidase activity (blue color due to decomposition of 5-bromo-4-chloro-3-indolyl-β-D-galactopyranoside). Specifically, MAGI-CCR5 cells were suspended in DMEM medium containing 10% serum to prepare 5×10^4 cells/ml suspension. To each well of 96 well plate was inoculated 200 μl of the suspension, and the cells were cultivated at 37° C. overnight. The medium was removed by means of suction, and to the residue was added 100 μl of the above medium containing 0.32 μM of Test Compound and 100 μl of the above medium containing 300PFU of HIV-1 Ba-L cells. The final concentration of the test compound was 0.16 μM. The cells were cultivated at 37° C. for 2 days. The medium was removed by means of suction. To the residue was added 200 μl of cell fixative (PBS containing 1% formaldehyde and 0.2% glutaraldehyde), and the mixture was allowed to stand at room temperature for 5 minutes and washed twice with PBS. […] The number of blue cells was counted by microscope and defined as the number of cells infected with HIV-1.

SMILES | inhibition at 1 µM [1] [%] | melting point [°C] | other results
O=C(Nc1ccccc1)N(CCCN1CCC(Cc2ccccc2)CC1)c1ccccc1 [Example 1, N-[3-(4-Benzyl-1-piperidinyl)propyl]-N-phenyl-N′-phenylurea hydrochloride] | 96 |  | 
CS(=O)(=O)c1ccc(CC2CCN(CCCN(C(=O)Nc3ccc(Cl)cc3)c3ccccc3)CC2)cc1.Cl [Example 72, N′-(4-Chlorophenyl)-N-(3-{4-[4-(4-methylsulfonyl)benzyl]-1-piperidinyl}propyl)-N-phenylurea hydrochloride] |  |  | Inhibition Rate (%) at 1.0 μM [1]: 94%
O=C(NC1CCCCC1)N(CCCN1CCC(Cc2ccccc2)CC1)c1ccccc1 [Example 6, N-[3-(4-Benzyl-1-piperidinyl)propyl]-N′-cyclohexyl-N-phenylurea] |  | 106 to 108 | 
O=C(Nc1ccc(Cl)cc1)N(CCCN1CCC(Cc2ccccc2)CC1)c1ccccc1 [Example 2, N-[3-(4-Benzyl-1-piperidinyl)propyl]-N′-(4-chlorophenyl)-N-phenylurea] |  | 101 to 103 | 
CCCNC(=O)N(CCCN1CCC(Cc2ccccc2)CC1)c1ccccc1 [Example 7, N-[3-(4-Benzyl-1-piperidinyl)propyl]-N-phenyl-N′-propylurea] | 92 |  | 
O=C(Nc1ccc(Cl)cc1)N(CCCN1CCC(Cc2ccccc2)CC1)c1ccccc1 [Example 76, N-[3-(4-Benzyl-1-piperidinyl)propyl]-N′-(4-chlorophenyl)-N-phenylurea hydrochloride] |  |  | inhibition at 0.16 µM [2]: 98%

The next lines start with results.

inhibition at 1 µM [1] [%] | melting point [°C] | SMILES | other results
98 |  | O=C(Nc1ccc(Cl)cc1)N(CCCN1CCC(Cc2ccc(S(=O)(=O)N3CCOCC3)cc2)CC1)c1ccccc1 [Example 71, N′-(4-Chlorophenyl)-N-(3-{4-[4-(4-morpholinylsulfonyl)benzyl]-1-piperidinyl}propyl)-N-phenylurea hydrochloride] | 
100 |  | Cc1ccc(N(CCCN2CCC(Cc3ccccc3)CC2)C(=O)Nc2ccc(Cl)cc2)cc1 [Example 10, N-[3-(4-Benzyl-1-piperidinyl)propyl]-N′-(4-chlorophenyl)-N-(4-methylphenyl)urea hydrochloride] | 
92 |  | O=C(Nc1ccc(Cl)cc1)N(CCCN1CCC(Cc2ccc(F)cc2)CC1)c1ccc(Cl)c(Cl)c1 [Example 12, N′-(4-Chlorophenyl)-N-(3,4-dichlorophenyl)-N-{3-[4-(4-fluorobenzyl)-1-piperidinyl]propyl}urea] | 
67 | 124 to 127 | O=C(Nc1cccc2ccccc12)N(CCCN1CCC(Cc2ccccc2)CC1)c1ccccc1 [Example 13, N-[3-(4-Benzyl-1-piperidinyl)propyl]-N′-(1-naphthyl)-N-phenylurea] | 
